Laboratory results as given in patent US20090275626A1, “PHARMACEUTICAL COMPOSITION FOR PREVENTION OR TREATMENT OF NEUROGENIC PAIN” (KISSEI PHARMACEUTICAL CO., LTD., priority 2005, published 2009).
“Also recorded” adds a separate entry of the source.

How the values were obtained:
Assay type in all cases: in vivo, rat
Seltzer model rats = assay: Nociceptive threshold in Seltzer model rats (Test Example 3, Randall-Selitto method); details: for nociceptive threshold of the nerve ligation group: 1 hour after final administration; for analgesic effect compared with carbamazepine: Compounds 1, 2: 1 mg/kg s.c., Compound 3 hydrochloride: 10 mg/kg oral, carbamazepine 10 mg/kg oral, 2 weeks
Source text: Fifty-eight, 7-week old male SD rats were anesthetized with pentobarbital (Nembutal injection (a registered trademark)), and the right sciatic nerve was exposed. In the nerve ligation group (48 rats), half of the dorsal portion of the nerve was ligated using 6-0 nylon suture. In Normal group (10 rats), the sciatic nerve was only exposed. From the following day of the model preparation, each test article (Compound 1, Compound 2 or Compound 3 hydrochloride) was repeatedly administered once a day for 2 weeks. Compound 1 (10 rats) and Compound 2 (10 rats) were administered subcutaneously, and Compound 3 hydrochloride (9 rats) and carbamazepine (10 rats) were administered orally. Control group (9 rats) and Normal group were subcutaneously administered physiological saline. One hour after the final administration of the test articles, the nociceptive threshold against pressure stimulation given to the right hind-paw of rats was measured by Randall-Selitto method, and compared with Control group.

[1] = tested on: STZ-induced diabetic rats; assay: Nociceptive threshold in STZ-induced diabetic rats, repeated subcutaneous administration over 10 weeks (Test Example 2, Randall-Selitto method); details: for nociceptive threshold after 14-day repeated administration: 0.1, 0.3 and 1 mg/kg subcutaneous once a day, right hind-paw pressure, vs Control group; for neuroprotective effects: concluded from controlled changes of nociceptive threshold over 10 weeks (early hyperalgesia, late hypoalgesia); for changes of the nociceptive threshold over 10 weeks after STZ administration (repeated-measures analysis of variance vs Control group): subcutaneous once a day, measured every 2 weeks until 10th week, P<0.05
Protocol: STZ (50 mg/kg) was administered intravenously to male SD stain rats to induce diabetes mellitus. From the following day of the STZ administration, test article (Compound 1 or 2) was administered subcutaneously once a day, repeatedly. Normal and Control groups were administered subcutaneously physiological saline (9-10 rats in each group). Before the STZ administration and every 2 weeks until the 10th week after STZ administration, the nociceptive threshold against pressure stimulation given to the right hind-paw of rats was measured by Randall-Selitto method, and compared with Control group.
The changes of the nociceptive thresholds (mean±SE) in each group over 10 weeks after administration of each drug are shown in FIG. 2 and FIG. 3.

[2] = tested on: STZ-induced diabetic rats; assay: Nociceptive threshold in STZ-induced diabetic rats, repeated oral administration (Test Example 1, Randall-Selitto method); details: Compound 3 hydrochloride 10 mg/kg oral twice a day, 14-day repeated administration, 1 hour after final administration, right hind-paw pressure, vs Control group
Protocol: STZ (50 mg/kg) was administered intravenously to 7-week old male SD stain rats to induce diabetes mellitus. From the following day of the STZ administration, test article (Compound 3 hydrochloride) was administered orally twice a day, repeatedly (10 rats in each group). Normal and Control groups were administered the medium (0.5% methylcellulose). The nociceptive threshold against pressure stimulation given to the right hind-paw of rats after 2 weeks administration (1 hour after the final administration) of test article was measured by Randall-Selitto method, and compared with Control group.

[3] = 1 mg/kg subcutaneous once a day for 2 weeks
[4] = 10 mg/kg oral once a day for 2 weeks

Compound | nociceptive threshold of the nerve ligation group (Seltzer model rats; [3]) | analgesic effect compared with carbamazepine (Seltzer model rats) | nociceptive threshold after 14-day repeated administration [1] | neuroprotective effects [1] | changes of the nociceptive threshold over 10 weeks after STZ administration (repeated-measures analysis of variance vs Control group) ([1]; disodium salt) | nociceptive threshold of the nerve ligation group (Seltzer model rats; [4]) | nociceptive threshold [2] | changes of the nociceptive threshold over 10 weeks after STZ administration (repeated-measures analysis of variance vs Control group) ([1]; sodium salt)
C[C@H](Cc1ccc2c(c1)OC(C(=O)[O-])(C(=O)[O-])O2)NC[C@H](O)c1cccc(Cl)c1.[Na+].[Na+] [Compound 2] | significantly improved | comparable to that of carbamazepine | increased clearly in a dose-dependent manner at 0.3 mg/kg or above | have neuroprotective effects | significant differences in comparison with Control group; also recorded: significant difference | – | – | –
NC(=O)N1c2ccccc2C=Cc2ccccc21 [carbamazepine, reference compound] | – | – | – | – | – | analgesic effect | – | –
Cc1cc(-c2ccc(C(=O)O)c(C(C)C)c2)cc(C)c1OCCN[C@@H](C)[C@H](O)c1ccc(O)cc1 [Compound 3, 4′-[2-[(1S,2R)-2-hydroxy-2-(4-hydroxyphenyl)-1-methylethylamino]ethoxy]-3-isopropyl-3′,5′-dimethylbiphenyl-4-carboxylic acid] | – | comparable to that of carbamazepine | – | – | – | significantly improved | increased remarkably | –
C[C@H](Cc1ccc(OCC(=O)[O-])cc1)NC[C@H](O)c1cccc(Cl)c1.[Na+] [Compound 1] | significantly improved | comparable to that of carbamazepine | increased clearly in a dose-dependent manner at 0.3 mg/kg or above | have neuroprotective effects | – | – | – | significant differences in comparison with Control group; also recorded: significant difference
